Entries after “also recorded” stand apart in the source; their conditions may differ.
Target: T1, hDMT1 (Homo sapiens, UniProt P49281)
T1 sequence (P49281 1-568): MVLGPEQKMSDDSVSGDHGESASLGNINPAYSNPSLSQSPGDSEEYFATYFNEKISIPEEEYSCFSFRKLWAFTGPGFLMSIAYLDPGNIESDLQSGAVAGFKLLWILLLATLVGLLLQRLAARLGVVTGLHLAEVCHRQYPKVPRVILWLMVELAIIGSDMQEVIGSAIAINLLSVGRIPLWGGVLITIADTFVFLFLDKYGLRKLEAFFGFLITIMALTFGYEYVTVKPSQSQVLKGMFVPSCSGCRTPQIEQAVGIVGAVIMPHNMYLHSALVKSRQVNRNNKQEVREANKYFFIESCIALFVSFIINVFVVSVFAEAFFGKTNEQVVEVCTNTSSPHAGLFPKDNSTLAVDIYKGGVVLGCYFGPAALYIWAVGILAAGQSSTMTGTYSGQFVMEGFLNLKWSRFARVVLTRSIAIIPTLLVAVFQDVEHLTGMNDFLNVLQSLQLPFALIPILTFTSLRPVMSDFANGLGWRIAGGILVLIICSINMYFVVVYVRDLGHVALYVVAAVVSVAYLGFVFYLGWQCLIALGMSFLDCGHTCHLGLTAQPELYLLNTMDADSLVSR
Assay: two-electrode voltage-clamp electrophysiology of Fe2+ evoked currents in hDMT1-injected Xenopus oocytes
Format: cell-based
Settings: Fe2+ 20 μM
Protocol: Fig. 3 Characterization of Fe^2+ transport inhibition by 1 and 13 in X. laevis oocytes (collected from frogs under license number BE60/18 conceded by the Veterinärdienst des Kantons BE, Sekretariat Tierversuche). (a) Upper panel: Average ^55Fe^2+-uptake (20 μM) by hDMT1-expressing and non-injected oocytes in the absence and the presence of the indicated compounds (10 μM). Data was normalized to ^55Fe^2+-uptake (pmol min^–1) in the absence of compounds represented as mean ± SD (16–29 oocytes). Lower panel: Net uptake of ^55Fe^2+ (20 μM) by hDMT1 in the absence and the presence of the indicated compounds (10 μM). For each batch of oocytes, uptake values were corrected for unspecific iron uptake in non-injected oocytes. Data were normalized to the mean iron uptake by hDMT1 WT (pmol min^–1) and represented as mean ± SD (14–34 oocytes). (b and c) Electrophysiology. […] For each trace, recorded currents were corrected for the background currents observed without substrate. (b) Representative traces recorded with hDMT1 injected oocytes (upper panel) and non-injected oocytes (lower panel). […] Statistical differences were assessed using T-test or Mann–Whitney U test (Fe^2+-uptake by hDMT1 WT vs. non-injected oocytes or vs. compound); p > 0.05 = ns; p < 0.001 = ***.
250 µM non-radioactive Fe2+ and 100 µM Ascorbic acid. Next, oocytes were solubilized with SDS 10% and 55Fe2+ content was determined by scintillation counting. To determine the total activity of the hDMT1-expressing oocytes, uptake of 55Fe2+ was determined also in the absence of any compound. […]
Electrophysiology methods. […] Then, the membrane voltage was held at -50 mV (Vh), and the current (nA) required to keep Vh constant was recorded along the experiments. These currents were measured with an OC-725 amplifier (Warner Instruments), low-pass filtered at 500 Hz, digitized at 5 kHz with a Digidata 1440 data acquisition system and captured using pClamp 10 software (Axon Instruments). […]

N=C(N)SCc1cccc2c1oc1c(CSC(=N)N)cccc12 [Compound 1, reference compound]
IC50 (currents at -70 mV, dose-response 0.01-10 μM, read-out: IC50 of inhibition of Fe2+ evoked currents): 140 nM

Cc1cc(=O)[nH]c(-n2nc3c(c2C)CCCC3)n1 [Compound 13]
effect on hDMT1-induced currents (compound up to 10 μM): no measurable effect on the recorded currents; also recorded: did not modulate hDMT1-induced currents | IC50 of inhibition of Fe2+ evoked currents (currents at -70 mV, dose-response 0.01-10 μM): did not fit to the equation
